Earlier results in patent publication US20110250260A1, “INHIBITION OF BRAIN ENZYMES INOLVED IN CEREBRAL AMYLOID ANGIOPATHY AND MACULAR DEGENERATION” (Loma Linda University Medical Center, priority 2006, published 2011).
Where a SMILES comes first, the peptide text is derived from it. The star is where a group is joined. Cbz = O=C(OCc1ccccc1)*; CH2F = FC*

Assays:
[1] = tested on: heart failure in a murine model
[2] = tested on: liver function during hepatitis C virus infection; settings: human trials
[3] = tested on: cell death after ischemia in multiple tissues; settings: animal models
Heme oxidase = settings: experimental brain hematomas

Cc1c(C(=O)N[C@H](C(=O)NC(CC(=O)O)C(=O)CF)C(C)C)n(C)c2ccccc12 (stereo partly shown) [IDN-1965]
mortality ([1]; compared with vehicle-treated mice): eliminate the 30% mortality
reduction of caspase 3-like activity ([1]; continuous infusion): 90%
reduction of terminal dUTP nick end-labeling-positive myocytes ([1]; continuous infusion): 90%

C[C@H](NC(=O)C(=O)Nc1ccccc1C(C)(C)C)C(=O)N[C@@H](CC(=O)O)C(=O)COc1c(F)c(F)cc(F)c1F [IDN-6556]
preserving liver function [2]: showing promise
side-effects [2]: without exhibiting serious side-effects

COC(=O)C[C@H](NC(=O)[C@H](C)NC(=O)[C@@H](NC(=O)OCc1ccccc1)C(C)C)C(=O)CF [zVAD-FMK] (Cbz-Val-Ala-Asp(OMe)-CH2F)
reducing cell death after ischemia [3]: highly effective

tin-mesoporphyrin
effects to the brain of heme oxidase inhibition (Heme oxidase): beneficial effects to the brain
